The source of these data is patent US6376230B1 (dated 2002).

Consider `CCCCCCC1=C(O)CCOC1=O`, for which the melting point was 98 to 99 °C (dec.). Next, `CC1=C(O)CCOC1=O`: 138 to 144 °C (dec.).
